# Reference: US20230310441A1, “TREATMENT FOR SCHIZOPHRENIA” (TAKEDA PHARMACEUTICAL COMPANY, priority 2020, published 2023)
# “Also recorded” adds a separate entry of the source. Read-outs that look alike come from different tables or passages of the source.
# Assay: Phase 1 FIH study: plasma pharmacokinetics in healthy participants
# Assay type: in vivo, human
# Conditions: for Tmax / Cmax / AUC(0-t) / AUC / Vd/F: human, plasma; for Vd/F: read-out: Vz/F (mean)
# Description: Part 1 was a double-blind, SRD study in healthy adults, utilizing an alternate panel design (cohorts 1, 2) and sequential panel design (cohorts 3-5). Cohorts 1 and 2 were part of a two-period, alternating-panel, double-blind study of Compound (I) administered as an oral suspension (5 mg, 10 mg, 20 mg, or 40 mg) or matched placebo, with a washout period of at least 7 days between treatment periods. Cohorts 3-5 were part of a sequential-panel, double-blind study to evaluate the SRDs of Compound (I) (80, 120, or 160 mg, respectively) or matched placebo. Although planned, all subsequent doses after the dose of 80 mg were determined based on emerging safety, tolerability, and PK data from the preceding cohorts.
# In Part 2, participants received either placebo on all dosing days or a loading dose of Compound (I) on Day 1 and a maintenance dose of half the initial dose on Days 8, 15 and 22, administered as an oral suspension. Baseline measurements were obtained on Day −2, and study-specific measurements were obtained following oral dose administrations on Days 1, 8, 15, and 22.
# Part 3 was a randomized, open-label, single-dose, parallel design study to evaluate the bioavailability of a Compound (I) tablet formulation relative to a Compound (I) oral suspension formulation and the effect of food on the PK in healthy participants. The immediate release tablet contained mannitol, microcrystalline cellulose, and other commonly used excipients. Participants were randomized 1:1 to receive a single 40 mg dose of Compound (I) as a tablet after either 10 h overnight fast, or 30 min after beginning ingestion of a high-fat, high-calorie breakfast.
# Participants were required to remain in the study unit for an additional 48 h post-dose for safety and PK assessments with follow-up visits on Day 4-5 and on Day 17-21. Blood samples were collected over 96 h post-dose to measure the plasma concentrations of Compound (I).
# Plasma and urine concentrations of Compound (I) and urine concentrations of cortisol and 6β-hydroxycortisol were measured by high performance liquid chromatography with tandem mass spectrometry. One 4 mL blood sample was collected per scheduled assessment. For participants receiving placebo, blood samples were analyzed only at pre-dose and around the time Cmax occurred (as emerging from the measurements of the first dose group) to ensure that no additional participants could have been on active treatment. Serial urine samples were collected for Part 1 cohorts 1-5 and Part 2 cohorts 1-4. Urine samples for participants receiving placebo were not analyzed. Urine samples were collected for the determination of cortisol and 6β-hydroxycortisol for Part 2 cohorts 1-4 and for all patients in Part 4. Samples for participants randomized to placebo were analyzed for these parameters.
# Pharmacokinetic parameters were determined from the concentration-time profiles for all evaluable participants. Actual sampling times were used in all computations. pharmacokinetic parameters were calculated using non-compartmental analysis using Phoenix WinNonLin v8.0 or SAS v 9.4.
# [1] = Part 3, single oral 40 mg tablet
# [2] = healthy, oral, 40/20 mg, Day 22, N 6
# [3] = healthy, oral, 80/40 mg, Day 22, N 6
# [4] = healthy, oral, 120/60 mg, Day 22, N 6
# [5] = healthy, oral, 160/80 mg, Day 22, N 6
# [6] = po, healthy, oral, 40/20 mg, Day 22, N 6
# [7] = po, healthy, oral, 80/40 mg, Day 22, N 6
# [8] = po, healthy, oral, 120/60 mg, Day 22, N 6
# [9] = po, healthy, oral, 160/80 mg, Day 22, N 6
compound,measurement,setting,value
"C[C@H](NC(=O)Cn1nnc2ccccc2c1=O)c1ccc(OC(F)(F)F)cc1 [Compound (I), (S)-2-(4-oxobenzo[d][1,2,3]triazin-3(4H)-yl)-N-(1-(4-(trifluoromethoxy)phenyl)ethyl)acetamide]",mean t1/2z,"Part 1 SRD, 20-160 mg dose range",210 to 296 h
same,mean t1/2z at steady state,Part 2 MRD,170 to 302 h
same,dose proportionality of systemic exposure at steady state,"Part 2 MRD, Day 22",increased approximately dose proportionally
same,"ratio for AUC96, tablet under fasted and fed conditions",[1],~0.942
same,"ratio for Cmax, tablet under fasted and fed conditions",[1],approximately 0.841
same,food effect on systemic exposure,"Part 3, tablet, fasted vs high-fat, high-calorie meal",no meaningful food effect on systemic exposure; also recorded: minimal food effect
same,steady-state mean t1/2z,healthy participants (comparison for Part 4),271 h
same,CL/F (mean),[2],334.6 mL/h
same,"Cav,ss (mean)",[2],393.8 ng/mL
same,Ctrough (mean),[2],274.2 ng/mL
same,t1/2z (mean),[2],299.5 h
same,CL/F (mean),[3],281.9 mL/h
same,"Cav,ss (mean)",[3],889.3 ng/mL
same,Ctrough (mean),[3],621.3 ng/mL
same,t1/2z (mean),[3],301.7 h
same,CL/F (mean),[4],299.1 mL/h
same,"Cav,ss (mean)",[4],1206.6 ng/mL
same,Ctrough (mean),[4],862.5 ng/mL
same,t1/2z (mean),[4],169.7 h
same,CL/F (mean),[5],284.6 mL/h
same,"Cav,ss (mean)",[5],1751.1 ng/mL
same,Ctrough (mean),[5],1209.0 ng/mL
same,t1/2z (mean),[5],270.8 h
same,saturation of plasma PK,highest dose level tested,Saturation of plasma PK was observed at 160 mg
same,Tmax,"oral, 40 mg, Part 3, tablet formulation, fasted and fed states, read-out: median tmax",2 h
same,Tmax,"oral, 120 mg, Part 1 SRD, 120 mg (secondary peak in some participants), read-out: median tmax",13 h
same,Tmax,"oral, 160 mg, Part 1 SRD, 160 mg (secondary peak in some participants), read-out: median tmax",13.5 h
same,Tmax,"oral, Part 1 SRD, dose range 5-80 mg, read-out: median tmax",0.99 to 3 h
same,Cmax,"oral, Part 2 MRD, 40/20 mg, up to 168 h post-dose, read-out: Mean Cmax (SD)",550 ng/mL
same,Cmax,"oral, Part 2 MRD, 80/40 mg, up to 168 h post-dose, read-out: Mean Cmax (SD)",880 ng/mL
same,Cmax,"oral, Part 2 MRD, 120/60 mg, up to 168 h post-dose, read-out: Mean Cmax (SD)",1260 ng/mL
same,Cmax,"oral, Part 2 MRD, 160/80 mg, up to 168 h post-dose, read-out: Mean Cmax (SD)",1760 ng/mL
same,Tmax,"oral, Part 2 MRD, read-out: median tmax",1.75 to 3 h
same,Tmax,"oral, healthy participants (comparison for Part 4), read-out: median tmax",3 h
same,Cmax,"po, 5 mg, Part 1 SRD, Cohort 1, 5 mg oral suspension, fasted, up to 96 h post-dose, read-out: Mean Cmax (SD)",140 ng/mL
same,Cmax,"po, 10 mg, Part 1 SRD, Cohort 2, 10 mg oral suspension, fasted, up to 96 h post-dose, read-out: Mean Cmax (SD)",193 ng/mL
same,Cmax,"po, 80 mg, Part 1 SRD, Cohort 3, 80 mg oral suspension, fasted, up to 168 h post-dose, read-out: Mean Cmax (SD)",910 ng/mL
same,Cmax,"po, 120 mg, Part 1 SRD, Cohort 4, 120 mg oral suspension, fasted, up to 168 h post-dose, read-out: Mean Cmax (SD)",1200 ng/mL
same,Cmax,"po, 160 mg, Part 1 SRD, Cohort 5, 160 mg oral suspension, fasted, up to 168 h post-dose, read-out: Mean Cmax (SD)",1120 ng/mL
same,AUC(0-t),[6],191 µg·h/mL
same,AUC,"po, healthy, oral, 40/20 mg, Day 22, N 6, read-out: AUC24 (mean)",12 µg·h/mL
same,AUC,"po, healthy, oral, 40/20 mg, Day 22, N 6, read-out: AUC96 (mean)",42.2 µg·h/mL
same,AUC,"po, healthy, oral, 40/20 mg, Day 22, N 6, read-out: AUCτ (mean)",66.2 µg·h/mL
same,Cmax,"po, healthy, oral, 40/20 mg, Day 22, N 6, read-out: Cmax (mean)",698 ng/mL
same,Vd/F,[6],112 L
same,Tmax,"po, healthy, oral, 40/20 mg, Day 22, N 6, read-out: tmax (median)",1.75 h
same,AUC(0-t),[7],421 µg·h/mL
same,AUC,"po, healthy, oral, 80/40 mg, Day 22, N 6, read-out: AUC24 (mean)",24.4 µg·h/mL
same,AUC,"po, healthy, oral, 80/40 mg, Day 22, N 6, read-out: AUC96 (mean)",92.7 µg·h/mL
same,AUC,"po, healthy, oral, 80/40 mg, Day 22, N 6, read-out: AUCτ (mean)",149 µg·h/mL
same,Cmax,"po, healthy, oral, 80/40 mg, Day 22, N 6, read-out: Cmax (mean)",1250 ng/mL
same,Vd/F,[7],123 L
same,Tmax,"po, healthy, oral, 80/40 mg, Day 22, N 6, read-out: tmax (median)",2 h
same,AUC(0-t),[8],407 µg·h/mL
same,AUC,"po, healthy, oral, 120/60 mg, Day 22, N 6, read-out: AUC24 (mean)",35.9 µg·h/mL
same,AUC,"po, healthy, oral, 120/60 mg, Day 22, N 6, read-out: AUC96 (mean)",134 µg·h/mL
same,AUC,"po, healthy, oral, 120/60 mg, Day 22, N 6, read-out: AUCτ (mean)",203 µg·h/mL
same,Cmax,"po, healthy, oral, 120/60 mg, Day 22, N 6, read-out: Cmax (mean)",1740 ng/mL
same,Vd/F,[8],73 L
same,Tmax,"po, healthy, oral, 120/60 mg, Day 22, N 6, read-out: tmax (median)",3 h
same,AUC(0-t),[9],841 µg·h/mL
same,AUC,"po, healthy, oral, 160/80 mg, Day 22, N 6, read-out: AUC24 (mean)",47.4 µg·h/mL
same,AUC,"po, healthy, oral, 160/80 mg, Day 22, N 6, read-out: AUC96 (mean)",181 µg·h/mL
same,AUC,"po, healthy, oral, 160/80 mg, Day 22, N 6, read-out: AUCτ (mean)",294 µg·h/mL
same,Cmax,"po, healthy, oral, 160/80 mg, Day 22, N 6, read-out: Cmax (mean)",2410 ng/mL
same,Vd/F,[9],103 L
same,Tmax,"po, healthy, oral, 160/80 mg, Day 22, N 6, read-out: tmax (median)",3 h
same,Tmax,"po, oral suspension (comparison for Part 3), read-out: median tmax",1.82 h
same,Tmax,"po, single and repeated oral administration, healthy and schizophrenia patients, read-out: tmax",0.99 to 3 h
same,absorption,"single and repeated oral administration, healthy volunteers and patients with stable schizophrenia",rapidly absorbed
same,dose proportionality of Cmax and AUC,"single oral doses 5-160 mg, healthy",increased less than dose proportionally
